According to ChEMBL document CHEMBL5727676, “Bromodomain inhibitors” (2020):

What was measured:
[1] = target: T1, Bromodomain-containing protein 4 (Homo sapiens, UniProt O60885); test: (§1) TR-FRET Assay: Compound dilution series were prepared in DMSO via an approximately 3-fold serial dilution. Compound dilutions were added directly into white, low-volume assay plates (Perkin Elmer Proxiplate 384 Plus#6008280) using a Labcyte Echo in conjunction with Labcyte Access and Thermo Multidrop CombinL robotics. Compounds were then suspended in eight microliters (μL) of assay buffer (20 mM Sodium Phosphate, pH 6.0, 50 mM NaCl, 1 mM Ethylenediaminetetraacetic acid disodium salt dihydrate, 0.01% Triton X-100, 1 mM DL-Dithiothreitol) containing His-tagged bromodomain, Europium-conjugated anti-His antibody (Invitrogen PV5596) and Alexa-647-conjugated probe.The final concentration of 1× assay mixture contained 2% DMSO, 12 nM His tagged BRD4 (BDI_K57-E168) and 100 nM probe or 4 nM His tagged BRD4 (BDII_E352-M457) and 30 nM probe, and 1 nM Europium-conjugated anti-His-tag antibody, and compound concentrations in the range of: 49.02 μM-0.61 nM or 0.98 μM-0.15 nM.After a one-hour equilibration at room temperature, TR-FRET ratios were determined using an Envision multilabel plate reader (Ex 340, […]).
[2] = target: T1, Bromodomain-containing protein 4; test: as §1; remark: listed apart in the source

Row | Structure (SMILES) | Ki [1] [nM] | Ki [2] [nM]
1 | Cc1cccc(C)c1Oc1ccc(C(C)(O)CC(C)C)cc1-c1cn(C)c(=O)c2[nH]c(C(=O)NC(C)(C)C)cc12 (centres undefined) | 6.6 | 6690
2 | Cc1cc(F)cc(Cl)c1Oc1ccc(C(C)(C)O)cc1-c1cn(C)c(=O)c2[nH]c(C(=O)NC3(C)CC3(F)F)cc12 (centres undefined) | 7.4 | 1770
